These results are taken from patent US7745636B2, “Hepatitis C virus inhibitors” (Bristol-Myers Squibb Company, priority 2006, dated 2010).

Like-named read-outs stand apart in the source and are kept apart here.

The subject of the assay is HCV 1b-377-neo replicon cells. Kind of assay: HCV Replicon assay, HCV 1b-377-neo replicon cells. In kind it is cell-based, HCV 1b genotype. The procedure:
An HCV Replicon assay was utilized in the present disclosure, and was prepared, conducted and validated as described in commonly owned PCT/US2006/022197 and in O'Boyle et. al. Antimicrob Agents Chemother. 2005 April; 49(4):1346-53.
HCV 1b-377-neo replicon cells were used to test the currently described compound series as well as cells resistant to compound A due to a Y2065H mutation in NS5A (described in application PCT/US2006/022197). The compounds tested were determined to have more than 10-fold less inhibitory activity on cells resistant to compound A than wild-type cells indicating a related mechanism of action between the two compound series. Thus, the compounds of the present disclosure can be effective to inhibit the function of the HCV NS5A protein and are understood to be as effective in combinations as previously described in application PCT/US2006/022197 and commonly owned WO/O4014852. Further, the compounds of the present disclosure can be effective against the HCV 1b genotype. It should also be understood that the compounds of the present disclosure can inhibit multiple genotypes of HCV. […] In one embodiment compounds of the present disclosure are active against the 1a, 1b, 2a, 2b, 3a, 4a, and 5a genotypes.
For orientation: Replicon systems follow genome replication, usually without infectious particles.

Where [1] appears, read: Hepatitis C virus, Table 2, read-out: Range (EC50 against HCV 1b).

Consider `CN(C)[C@@H](C(=O)N1CCC[C@H]1c1nc(-c2ccc(-c3ccc(-c4cn(C)c([C@@H]5CCCN5C(=O)[C@@H](c5ccccc5)N(C)C)n4)cc3)cc2)cn1C)c1ccccc1` (single isomer, unassigned) [Example 151 isomer 1], for which, where the note is “Table 2, listed as 151 isomer 1, read-out: Range (EC50 against HCV 1b)”, the EC50 – broadly, the concentration needed to bring the measured effect to its halfway point – fell in the range of 1 to 99 nM.

`CN(C)[C@@H](C(=O)N1CCC[C@H]1c1nc(-c2ccc(-c3ccc(-c4cn(C)c([C@@H]5CCCN5C(=O)[C@@H](c5ccccc5)N(C)C)n4)cc3)cc2)cn1C)c1ccccc1` (single isomer, unassigned) [Example 151 isomer 2]: the EC50 (Table 2, listed as 151 isomer 2, read-out: Range (EC50 against HCV 1b)) was 100 to 999 nM.

For `CCN(CC)C(C)C(=O)N1CCC[C@H]1c1nc(C(F)(F)F)c(-c2ccc(-c3ncc(-c4cnc([C@@H]5CCCN5C(=O)[C@@H](C)N(CC)CC)[nH]4)cn3)cc2)[nH]1` (stereo in doubt) [Example J51, (2R)-1-((2S)-2-(5-(4-(5-(2-((2S)-1-((2R)-2-(diethylamino)propanoyl)-2-pyrrolidinyl)-1H-imidazol-5-yl)-2-pyrimidinyl)phenyl)-4-(trifluoromethyl)-1H-imidazol-2-yl)-1-pyrrolidinyl)-N,N-diethyl-1-oxo-2-propanamine], under setting [1], the EC50 fell in the range of 1 to 99 nM.

As for `CN(C)[C@@H](C(=O)N1CCC[C@H]1c1ncc(-c2ccc(-c3ccc(-c4cnc([C@@H]5CCCN5C(=O)[C@@H](c5ccccc5)N(C)C)[nH]4)cc3)cc2)[nH]1)c1ccccc1` [Example 1, (1R,1′R)-2,2′-(4,4′-biphenyldiylbis(1H-imidazole-5,2-diyl(2S)-2,1-pyrrolidinediyl))bis(N,N-dimethyl-2-oxo-1-phenylethanamine)], the EC50 under setting [1] fell in the range of 0.001 to 0.999 nM.

For `CC(C)[C@H](NC(=O)OC(C)(C)C)c1ncc(-c2ccc(-c3ccc(-c4cnc([C@@H](NC(=O)OC(C)(C)C)C(C)C)[nH]4)cc3)cc2)[nH]1` [Example 3], under “Table 2, read-out: Range (EC50 against HCV 1b)”, the EC50 lay in the range of 0.001 to 0.999 nM.

Turning to `COC(=O)N[C@@H](C(=O)N(C)[C@@H](C)c1ncc(-c2ccc(-c3ccc(-c4cnc([C@H](C)N(C)C(=O)[C@H](NC(=O)OC)c5ccccc5)[nH]4)cc3)cc2)[nH]1)c1ccccc1` [Example 24-18-1, dimethyl (4,4′-biphenyldiylbis (1H-imidazole-5,2-diyl(1S)-1,1-ethanediyl(methyl-imino)((1R)-2-oxo-1-phenyl-2,1-ethanediyl))) biscarbamate], the EC50 under setting [1] is 0.001 to 0.999 nM.

`C[C@@H](c1ncc(-c2ccc(-c3ccc(-c4cnc([C@H](C)N(C)C(=O)[C@@H](c5ccccc5)N(C)C)[nH]4)cc3)cc2)[nH]1)N(C)C(=O)[C@@H](c1ccccc1)N(C)C` [Example 24-18-2, (2R,2′R)-N,N′-(4,4′-biphenyldiylbis (1H-imidazole-5,2-diyl(1S)-1,1-ethanediyl))bis(2-(dimethylamino)-N-methyl-2-phenylacetamide)]: the EC50 under setting [1] lay in the range of 0.001 to 0.999 nM.

Consider `C[C@@H](c1ncc(-c2ccc(-c3ccc(-c4cnc([C@H](C)N(C)C(=O)[C@@H](c5ccccc5)N5CCCCC5)[nH]4)cc3)cc2)[nH]1)N(C)C(=O)[C@@H](c1ccccc1)N1CCCCC1` [Example 24-18-3, (2R,2′R)-N,N′-(4,4′-biphenyldiylbis (1H-imidazol-5,2-diyl(1S)-1,1-ethanediyl))bis(N-methyl-2-phenyl-2-(1-piperidinyl)acetamide)], for which, under setting [1], the EC50 fell in the range of 0.001 to 0.999 nM.

As to `COC(=O)N[C@@H](C(=O)N(C)[C@@H](C)c1ncc(-c2ccc(-c3ccc(-c4cnc([C@@H]5CCCN5C(=O)[C@H](NC(=O)OC)c5ccccc5)[nH]4)cc3)cc2)[nH]1)c1ccccc1` [Example 24-18-4, methyl ((1R)-2-((2S)-2-(5-(4′-(2-((1S)-1-(((2R)-2-((methoxycarbonyl)amino)-2-phenylacetyl) (methyl)amino)ethyl)-1H-imidazol-5-yl)-4-biphenylyl)-1H-imidazol-2-yl)-1-pyrrolidinyl)-2-oxo-1-phenylethyl) carbamate], the EC50 under setting [1] was in the range of 0.001 to 0.999 nM.
